Our source for the Kd and KD values is publication PMC7570665 (2020).

In assay [1] the test system is T10-7.t5 (XNA, aptamer, all-TNA (alpha-L-threose nucleic acid, 3'-2'); 7-deaza-7-phenyl-guanine in place of every guanine) CTTTTAAGAACCGGACGAACTAGAATATTATATTTT
Kind of assay: competitive equilibrium filtration. The settings on record: 5 mM MgCl2, 300 mM NaCl; 20 mM Tris-HCl pH 7.6; displaces γ-32P-ATP; 4 °C in methods, 24 °C in legend; highest concentration not stated.

The test system is the same in assay [2]. Kind of assay: equilibrium filtration, γ-32P-ATP, Hill fit. The settings on record: 5 mM MgCl2, 300 mM NaCl; 20 mM Tris-HCl pH 7.6; 4 °C in methods, 24 °C in legend; apparent.

A word on the Kd: it is the equilibrium constant for the complex coming apart. For `Nc1ccn([C@@H]2O[C@H](COP(=O)(O)OP(=O)(O)OP(=O)(O)O)[C@@H](O)[C@H]2O)c(=O)n1`, the Kd in assay [1] is greater than 2000 µM.

For `Nc1nc2c(ncn2[C@@H]2O[C@H](COP(=O)(O)OP(=O)(O)OP(=O)(O)O)[C@@H](O)[C@H]2O)c(=O)[nH]1`, the Kd in assay [1] was greater than 2000 µM.

For the compound `Nc1ncnc2c1ncn2[C@@H]1O[C@H](COP(=O)(O)OP(=O)(O)OP(=O)(O)O)[C@@H](O)[C@H]1O`, the KD in assay [2] was found to be 22 ± 5 µM.

Compound `O=c1ccn([C@@H]2O[C@H](COP(=O)(O)OP(=O)(O)OP(=O)(O)O)[C@@H](O)[C@H]2O)c(=O)[nH]1` came in with a Kd in assay [1] greater than 2000 µM.
